Our source for the IC50 values is patent US10336748B2, “Methyoxy-substituted pyrrolopyridine modulators of RORC2 and methods of use thereof” (Pfizer Inc., priority 2015, dated 2019).

In experiment [1] the target is T1, RORC2 ligand binding domain (6-His-RORC2 LBD) (Homo sapiens, UniProt P51449).
T1 construct: made in house; host or cells: E. coli
T1 sequence (P51449 269-508 limits assumed): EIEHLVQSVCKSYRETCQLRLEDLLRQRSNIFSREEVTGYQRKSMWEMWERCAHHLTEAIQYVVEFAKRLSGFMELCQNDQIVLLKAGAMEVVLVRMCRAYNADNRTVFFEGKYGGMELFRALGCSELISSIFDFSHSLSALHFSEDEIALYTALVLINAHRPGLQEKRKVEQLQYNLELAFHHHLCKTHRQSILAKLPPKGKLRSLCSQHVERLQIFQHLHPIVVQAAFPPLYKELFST
Nature of the experiment: Co-activator recruitment by TR-FRET. The experiment is classed as biochemical. The following applies: 6.3 nM RORC2 LBD, 200 nM SRC1-2 coactivator peptide, 3 hr room temperature. An excerpt:
The activity of compound of the invention can be determined by a co-activator recruitment by TR-FRET (time-resolved fluorescence resonance energy transfer) assay. In general, the assay is based on the interaction between N-terminally Six-Histidine-tagged-RORC2 ligand binding domain (6-His-RORC2 LBD), expressed in E. coli and purified by affinity chromatography, and biotin-coactivator peptide SRC1-2 (biotin-aminohexanoic acid-[…]-NH2; SEQ ID NO: 1) containing the LXXLL consensus domain which is responsible for receptor binding. This interaction is detected by addition of Europium labeled-anti-His antibody (Ex. 337 nm, Em. 620 nm, which binds to 6His) and Streptavidin-APC (Ex. 620 nm, Em. 665 nm, which binds to biotin). When receptor and coactivator are bound to each other, upon shining light at 337 nm on the sample, the Europium emits fluorescence that excites APC due to close proximity (FRET) and this signal is measured at 665 nm. Due to the long lasting fluorescence emission of Europium, the non-specific, short-lived fluorescence is time-resolved (TR) from the fluorescence of interest. Inhibitors of the interaction of receptor and coactivator peptide are detected by a decrease in TR-FRET signal.
Specifically, in one embodiment the aforementioned assay was performed as outlined below. The assay was carried out in black polystyrene. 384-well plates in a total assay volume of 50.5 μL. The assay buffer contained 50 mM TRIS-HCL pH 7.5, 1 mM NaCl, 2 mM MgCl2, 0.5 mg/mL bovine serum albumin, and 5 mM dithiothreitol. The final concentration of reagents was 6.3 nM RORC2 LBD, 200 nM SRC1-2, 50 nM streptavidin APC, 1 nM Europium-labeled anti-His antibody, and varying concentrations of compounds such that final concentration of DMSO is 1% (v/v). The assay steps were: (1) dispensing […] compound at 100× final concentration in DMSO (test wells) or DMSO only (control wells for no inhibition); and (2) dispensing 50 μL mixture of the other assay components including receptor (test wells) or excluding receptor (control wells for maximal inhibition).
Assay mixtures were incubated are room temperature for 3 hr and read in EnVision 2100 Multilabel Reader (PerkinElmer Life Sciences) at Excitation Filter 320, Emission Europium Filter 615, Emission APC Filter 665, Dichroic Mirror D400/D630.
TR-FRET signal was determined by calculating the ratio of 665 nm by 615 nm and […] values of compounds of the invention (Table 1) were determined by the non-linear regression analysis of dose response curves.

Another experiment concerns human Th17 cells. Nature of the experiment: IL-17 production from human Th17 cells. The experiment is classed as cell-based. Particulars: 144 h; IL-17A in supernatant by ELISA (MSD) after 6 days, human CD4+ T cells, anti-CD3 + anti-CD28 + cytokine cocktail. The method, then:
The activity of compound of the invention can be also be determined by an IL-17 production from human Th17 cells assay. In general, this assay measures blockade of IL-17 production, the signature cytokine of T helper 17 (Th17) cells, by compounds. Purified human CD4+ T cells are stimulated with anti-CD3+anti-CD28 and incubated with a cytokine cocktail that induce their differentiation into Th17 in the absence or presence of various concentrations of compound. After 6 days, IL-17A concentration is measured in the cell culture supernatant with an ELISA kit (MSD).
Preparation of human CD4+ T cells. CD4+ T cells were purified from buffy coats from healthy donors (obtained from Massachusetts General Hospital) by negative selection the following procedure: Mixing 25 mL of blood with 1 mL of Rosette Sep CD4+ T cell enrichment cocktail (StemCell Technologies) followed by application of a layer of 14 mL Ficoll Paque Plus (Amersham GE Healthcare) and subsequent centrifugation at 1200 g for 20 min at room temperature. The Ficoll layer was then harvested and washed with phosphate saline buffer containing 2% (v/v) fetal bovine serum and cells were resuspended with RPMI medium containing 10% (v/v) fetal bovine serum and 10% (v/v) DMSO, frozen and kept in LN2 until used.
On the first day of the assay, a vial containing 10^7 CD4+ T cells is thawed rapidly in 37° C. water bath, immediately transferred into 20 mL X-Vivo 15 medium (Lonza), is spun for 6 min at 300×g, the supernatant is discarded, and the resulting pellet is re-suspended at 10^6 cells/mL in […] fresh X-Vivo 15 medium, followed by storage overnight in a tissue culture vessel in a humidified chamber at 37° C. and 5% CO2. Serial dilutions of compounds of the invention are prepared at 10× final concentration in X-Vivo15 medium containing 3% (v/v) DMSO.
On the second day of the assay, a 384-well tissue culture plate was coated with 10 μg/mL anti-hCD3 (eBioscience) at 50 μL/well. After 2 hr at 37° C., the supernatant is discarded and the coated plates are kept in a sterile tissue culture hood.
Cytokine plus anti-CD28 cocktail is prepared by mixing 25 ng/mL hIL-6 (Peprotech), 5 ng/mL hTGFbeta1 (Peprotech), 12.5 ng/mL IL-1beta (Peprotech), 25 ng/mL hIL-21, 25 ng/mL hIL-23 (R&D Systems), and 1 ug/mL anti-hCD28 (eBioscience) in X-Vivo 15 medium. The cytokine plus anti-CD28 cocktail with CD4+ cells is prepared such that the cocktail is diluted 10-fold and cell density is 0.22×10^6/mL. The mixture is incubated 1 hr at 37° C.
90 μL (20,000 cells) dispensed per well in the anti-hCD3 coated plate prepared as noted above.
10 μL 10× compound is added per well (final DMSO=0.3%) from the compound plate that was previously prepared, followed by 6 days of incubation in a tissue culture vessel in a humidified chamber at 37° C. and 5% CO2.
On day six of the assay, production of IL-17A in 10 μL of the supernatant is determined by sandwich ELISA using 384w hIL17 MSD plates following the manufacturer's protocol. Measurement is carried out in a Sector Imager 6000 by the same manufacturer. Signal units from the instrument are converted to pg/mL using a calibration curve with known amounts of IL-17A. IC50 values of test compounds (Table 2) are determined by the non-linear regression analysis of dose response curves.
A general note: ELISA stands for enzyme-linked immunosorbent assay.

In general, IC50 refers to the concentration at which inhibition is half-maximal. Take `COc1c(NC(=O)c2cccc(C#N)c2)cnc2c1c(C1CCN(C(=O)[C@@H](C)C(C)(C)C)CC1)cn2C` [Example 15, (S)-3-cyano-N-(4-methoxy-1-methyl-3-(1-(2,3,3-trimethylbutanoyl)piperidin-4-yl)-1H-pyrrolo[2,3-b]pyridin-5-yl)benzamide]: the IC50 in experiment [1] was 8.6 nM; with human Th17 cells it was 23.5 nM.
`COc1ccc(C(=O)Nc2cnc3c(c([C@@H]4CCN(C(=O)C5CCCC5)C[C@@H]4C)cn3C)c2OC)cc1C#N` [Example 25, 3-cyano-N-(3-((3R,4R)-1-(cyclopentanecarbonyl)-3-methylpiperidin-4-yl)-4-methoxy-1-methyl-1H-pyrrolo[2,3-b]pyridin-5-yl)-4-methoxybenzamide]: the IC50 in experiment [1] came to 10.1 nM; with human Th17 cells, 12 nM.
Taken in the same sequence, the figures for `COc1c(NC(=O)c2cccc(C#N)c2)cnc2c1c([C@@H]1CCN(C(=O)C3CC(C)(C)C3)C(C)(C)C1)cn2C` [Example 33, (R)-3-cyano-N-(3-(1-(3,3-dimethylcyclobutane-1-carbonyl)-2,2-dimethylpiperidin-4-yl)-4-methoxy-1-methyl-1H-pyrrolo[2,3-b]pyridin-5-yl)benzamide] were 8.5 nM and 15.6 nM.
In the case of `COc1c(NC(=O)c2cccc(C#N)c2)cnc2c1c(C1CCN(C(=O)[C@@H](C)C3CCCC3)CC1)cn2C` [Example 19, (S)-3-cyano-N-(3-(1-(2-cyclopentylpropanoyl)piperidin-4-yl)-4-methoxy-1-methyl-1H-pyrrolo[2,3-b]pyridin-5-yl)benzamide], the IC50 was 13.3 nM in experiment [1] and 22.3 nM in the experiment on human Th17 cells.
For the molecule `COc1c(NC(=O)c2cccc(C#N)c2)cnc2c1c(C1CCN(C(=O)[C@H](C)C(C)(C)C)CC1)cn2C` [Example 5, (R)-3-cyano-N-(4-methoxy-1-methyl-3-(1-(2,3,3-trimethylbutanoyl)piperidin-4-yl)-1H-pyrrolo[2,3-b]pyridin-5-yl)benzamide], the IC50 in experiment [1] turned out to be 6.1 nM; in the experiment with human Th17 cells, 10.6 nM.
The corresponding values for `COc1c(NC(=O)c2ccc(C)c(C#N)c2)cnc2c1c(C1CCN(C(=O)C3CCCC3)CC1)cn2C` [Example 11, 3-cyano-N-(3-(1-(cyclopentanecarbonyl)piperidin-4-yl)-4-methoxy-1-methyl-1H-pyrrolo[2,3-b]pyridin-5-yl)-4-methylbenzamide] are 17.8 nM and 50.7 nM.
The corresponding values for `COc1cc(C#N)cc(C(=O)Nc2cnc3c(c(C4CCN(C(=O)C[C@@H](O)C(F)(F)F)CC4)cn3C)c2OC)c1` [Example 9, (R)-3-cyano-5-methoxy-N-(4-methoxy-1-methyl-3-(1-(4,4,4-trifluoro-3-hydroxybutanoyl)piperidin-4-yl)-1H-pyrrolo[2,3-b]pyridin-5-yl)benzamide] are 56.2 nM and 77.1 nM.
Take `COc1c(NC(=O)c2cccc(C#N)c2)cnc2c1c(C1CCN(C(=O)[C@@H](C)C(C)C)CC1)cn2C` [Example 14, (S)-3-cyano-N-(3-(1-(2,3-dimethylbutanoyl)piperidin-4-yl)-4-methoxy-1-methyl-1H-pyrrolo[2,3-b]pyridin-5-yl)benzamide]: the IC50 in experiment [1] is 14.2 nM; with human Th17 cells it was 42.1 nM.
Take `COc1c(NC(=O)c2cc(C#N)cc(CO)c2)cnc2c1c(C1CCN(C(=O)C3CCCC3)CC1)cn2C` [Example 17, 3-cyano-N-(3-(1-(cyclopentanecarbonyl)piperidin-4-yl)-4-methoxy-1-methyl-1H-pyrrolo[2,3-b]pyridin-5-yl)-5-(hydroxymethyl)benzamide]: the values for the IC50 (in experiment [1]; in the experiment on human Th17 cells) were 14.2 nM and 82 nM, respectively.
Consider `COc1ccc(C(=O)Nc2cnc3c(c(C4CCN(C(=O)C(C)C)CC4)cn3C)c2OC)cc1C#N` [Example 2, 3-cyano-N-(3-(1-isobutyrylpiperidin-4-yl)-4-methoxy-1-methyl-1H-pyrrolo[2,3-b]pyridin-5-yl)-4-methoxybenzamide], for which the figures for the IC50 (in experiment [1]; in the experiment with human Th17 cells) were 38.7 nM and 17.8 nM, respectively.
